Measured values as given in patent US11492351B2, “MTA-cooperative PRMT5 inhibitors” (Mirati Therapeutics, Inc., priority 2019, dated 2022).
pIC50: −log10 of the molar value. Blank lines part the entries; values can stand above or below the molecule they belong to.

Columns and labels:
PRMT5/MEP50 complex [1] = molecular target: T1, PRMT5/MEP50 complex (Homo sapiens (Human), UniProt O14744); experiment: PRMT5:MEP50 FlashPlate Assay (histone H4 peptide, plus and minus MTA); type: biochemical
Method: (§1) The PRMT5 inhibitory activity of compounds of the present invention was determined using either a PRMT5:MEP50 FlashPlate Assay (Reaction Biology Corporation) or a PRMT5:MEP50 HotSpot Assay (Reaction Biology Corporation).
1. PRMT5:MEP50 FlashPlate Assay

PRMT5/MEP50 complex [2] = molecular target: T1, PRMT5/MEP50 complex; experiment: PRMT5:MEP50 HotSpot Assay (full-length histone H2A, plus and minus MTA); type: biochemical
Method: as §1
The assay uses recombinant full-length histone H2A as the PRMT5 substrate. […] The reaction was stopped and transferred to filter paper for detection. The amount of tritiated H2A in each sample was determined using a scintillation counter.

[3] = in the absence of MTA, read-out: IC50
[4] = read-out: IC50 + 2 μM MTA, in the presence of 2 μM MTA

T1 sequence (O14744 whole entry): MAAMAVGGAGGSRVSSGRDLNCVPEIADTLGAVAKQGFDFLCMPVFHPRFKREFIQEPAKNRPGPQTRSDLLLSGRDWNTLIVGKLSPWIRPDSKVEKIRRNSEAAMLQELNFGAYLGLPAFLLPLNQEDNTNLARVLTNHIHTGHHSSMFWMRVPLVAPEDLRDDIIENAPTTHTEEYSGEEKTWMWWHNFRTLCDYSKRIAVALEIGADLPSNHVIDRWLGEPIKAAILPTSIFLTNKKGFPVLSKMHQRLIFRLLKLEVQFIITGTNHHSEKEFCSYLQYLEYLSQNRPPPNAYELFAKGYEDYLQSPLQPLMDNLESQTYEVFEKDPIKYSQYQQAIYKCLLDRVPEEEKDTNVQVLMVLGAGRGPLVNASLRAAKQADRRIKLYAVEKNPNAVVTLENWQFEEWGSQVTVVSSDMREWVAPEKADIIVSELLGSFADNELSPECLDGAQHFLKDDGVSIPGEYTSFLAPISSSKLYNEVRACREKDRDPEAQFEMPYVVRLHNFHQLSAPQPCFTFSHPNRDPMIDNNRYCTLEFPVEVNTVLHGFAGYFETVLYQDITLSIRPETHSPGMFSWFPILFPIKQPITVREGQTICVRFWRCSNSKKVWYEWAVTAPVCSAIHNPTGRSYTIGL
T1 sequence (Q9BQA1 whole entry partner): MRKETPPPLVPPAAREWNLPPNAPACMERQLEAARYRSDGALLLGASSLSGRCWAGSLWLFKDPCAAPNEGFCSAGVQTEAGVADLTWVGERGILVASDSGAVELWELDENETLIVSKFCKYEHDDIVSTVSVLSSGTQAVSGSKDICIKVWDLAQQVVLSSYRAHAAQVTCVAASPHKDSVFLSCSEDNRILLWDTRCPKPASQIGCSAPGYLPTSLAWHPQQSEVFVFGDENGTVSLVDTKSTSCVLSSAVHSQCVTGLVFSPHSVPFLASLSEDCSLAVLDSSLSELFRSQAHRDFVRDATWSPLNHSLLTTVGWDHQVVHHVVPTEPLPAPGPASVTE

pIC50 (PRMT5/MEP50 complex [1]; [3]): 5.31
pIC50 (PRMT5/MEP50 complex [1]; [4]): 6.43
Structure (SMILES): Cc1cc2c(=O)[nH]nc(CN)c2cc1-c1cncc(C#N)c1 [Example 3-38]

pIC50 (PRMT5/MEP50 complex [2]; [3]): < 5.00
Structure (SMILES): Cn1ncc(-c2ccc3c(=O)[nH]nc(CN)c3c2)c1-c1ccccc1C#N [Example 4-100, 2-(4-(4-(aminomethyl)-1-oxo-1,2-dihydrophthalazin-6-yl)-1-methyl-1H-pyrazol-5-yl)benzonitrile]

pIC50 (PRMT5/MEP50 complex [1]; [3]): < 4.00
Structure (SMILES): Cc1nc2cncc(-c3ccc4c(=O)[nH]nc(CN)c4c3)c2o1 [Example 4-110, 4-(aminomethyl)-6-(2-methyloxazolo[4,5-c]pyridin-7-yl)phthalazin-1(2H)-one]

pIC50 (PRMT5/MEP50 complex [2]; [4]): < 5.00
Structure (SMILES): Cn1ncc(-c2ccc3c(=O)[nH]nc([C@H](N)C(F)F)c3c2)c1-c1ccc2ccccc2c1C#N [Example 9-6, 2-[4-[4-[(1S)-1-amino-2,2-difluoro-ethyl]-1-oxo-2H-phthalazin-6-yl]-2-methyl-pyrazol-3-yl]naphthalene-1-carbonitrile]
